The values below come from patent publication US20150246938A1, “NOVEL OLEFIN DERIVATIVE” (SHIONOGI & CO., LTD., priority 2011, published 2015).

The structures appear in SMILES notation. Like-named read-outs stand apart in the source and are kept apart here.

Usually IC50 stands for the point on the concentration scale where inhibition reaches its midpoint.

In the test the target is T1, recombinant human ACC2 (Homo sapiens, UniProt O00763).
T1 construct: a cDNA encoding human ACC2 (27-2458) was cloned from human kidney cDNA library (Clontech); His-tag (N); made in house; host or cells: Sf-9 insect cells (Bac-to-Bac baculovirus)
Briefly: Measurement of inhibitory activity on human ACC2 (MALDI-TOF MS, acetyl CoA to malonyl CoA conversion). Format: biochemical.

The mark [1] stands for this setting: inhibition activity on human ACC2, Table 84, read-out: IC50.

T1 sequence (O00763 27-2458): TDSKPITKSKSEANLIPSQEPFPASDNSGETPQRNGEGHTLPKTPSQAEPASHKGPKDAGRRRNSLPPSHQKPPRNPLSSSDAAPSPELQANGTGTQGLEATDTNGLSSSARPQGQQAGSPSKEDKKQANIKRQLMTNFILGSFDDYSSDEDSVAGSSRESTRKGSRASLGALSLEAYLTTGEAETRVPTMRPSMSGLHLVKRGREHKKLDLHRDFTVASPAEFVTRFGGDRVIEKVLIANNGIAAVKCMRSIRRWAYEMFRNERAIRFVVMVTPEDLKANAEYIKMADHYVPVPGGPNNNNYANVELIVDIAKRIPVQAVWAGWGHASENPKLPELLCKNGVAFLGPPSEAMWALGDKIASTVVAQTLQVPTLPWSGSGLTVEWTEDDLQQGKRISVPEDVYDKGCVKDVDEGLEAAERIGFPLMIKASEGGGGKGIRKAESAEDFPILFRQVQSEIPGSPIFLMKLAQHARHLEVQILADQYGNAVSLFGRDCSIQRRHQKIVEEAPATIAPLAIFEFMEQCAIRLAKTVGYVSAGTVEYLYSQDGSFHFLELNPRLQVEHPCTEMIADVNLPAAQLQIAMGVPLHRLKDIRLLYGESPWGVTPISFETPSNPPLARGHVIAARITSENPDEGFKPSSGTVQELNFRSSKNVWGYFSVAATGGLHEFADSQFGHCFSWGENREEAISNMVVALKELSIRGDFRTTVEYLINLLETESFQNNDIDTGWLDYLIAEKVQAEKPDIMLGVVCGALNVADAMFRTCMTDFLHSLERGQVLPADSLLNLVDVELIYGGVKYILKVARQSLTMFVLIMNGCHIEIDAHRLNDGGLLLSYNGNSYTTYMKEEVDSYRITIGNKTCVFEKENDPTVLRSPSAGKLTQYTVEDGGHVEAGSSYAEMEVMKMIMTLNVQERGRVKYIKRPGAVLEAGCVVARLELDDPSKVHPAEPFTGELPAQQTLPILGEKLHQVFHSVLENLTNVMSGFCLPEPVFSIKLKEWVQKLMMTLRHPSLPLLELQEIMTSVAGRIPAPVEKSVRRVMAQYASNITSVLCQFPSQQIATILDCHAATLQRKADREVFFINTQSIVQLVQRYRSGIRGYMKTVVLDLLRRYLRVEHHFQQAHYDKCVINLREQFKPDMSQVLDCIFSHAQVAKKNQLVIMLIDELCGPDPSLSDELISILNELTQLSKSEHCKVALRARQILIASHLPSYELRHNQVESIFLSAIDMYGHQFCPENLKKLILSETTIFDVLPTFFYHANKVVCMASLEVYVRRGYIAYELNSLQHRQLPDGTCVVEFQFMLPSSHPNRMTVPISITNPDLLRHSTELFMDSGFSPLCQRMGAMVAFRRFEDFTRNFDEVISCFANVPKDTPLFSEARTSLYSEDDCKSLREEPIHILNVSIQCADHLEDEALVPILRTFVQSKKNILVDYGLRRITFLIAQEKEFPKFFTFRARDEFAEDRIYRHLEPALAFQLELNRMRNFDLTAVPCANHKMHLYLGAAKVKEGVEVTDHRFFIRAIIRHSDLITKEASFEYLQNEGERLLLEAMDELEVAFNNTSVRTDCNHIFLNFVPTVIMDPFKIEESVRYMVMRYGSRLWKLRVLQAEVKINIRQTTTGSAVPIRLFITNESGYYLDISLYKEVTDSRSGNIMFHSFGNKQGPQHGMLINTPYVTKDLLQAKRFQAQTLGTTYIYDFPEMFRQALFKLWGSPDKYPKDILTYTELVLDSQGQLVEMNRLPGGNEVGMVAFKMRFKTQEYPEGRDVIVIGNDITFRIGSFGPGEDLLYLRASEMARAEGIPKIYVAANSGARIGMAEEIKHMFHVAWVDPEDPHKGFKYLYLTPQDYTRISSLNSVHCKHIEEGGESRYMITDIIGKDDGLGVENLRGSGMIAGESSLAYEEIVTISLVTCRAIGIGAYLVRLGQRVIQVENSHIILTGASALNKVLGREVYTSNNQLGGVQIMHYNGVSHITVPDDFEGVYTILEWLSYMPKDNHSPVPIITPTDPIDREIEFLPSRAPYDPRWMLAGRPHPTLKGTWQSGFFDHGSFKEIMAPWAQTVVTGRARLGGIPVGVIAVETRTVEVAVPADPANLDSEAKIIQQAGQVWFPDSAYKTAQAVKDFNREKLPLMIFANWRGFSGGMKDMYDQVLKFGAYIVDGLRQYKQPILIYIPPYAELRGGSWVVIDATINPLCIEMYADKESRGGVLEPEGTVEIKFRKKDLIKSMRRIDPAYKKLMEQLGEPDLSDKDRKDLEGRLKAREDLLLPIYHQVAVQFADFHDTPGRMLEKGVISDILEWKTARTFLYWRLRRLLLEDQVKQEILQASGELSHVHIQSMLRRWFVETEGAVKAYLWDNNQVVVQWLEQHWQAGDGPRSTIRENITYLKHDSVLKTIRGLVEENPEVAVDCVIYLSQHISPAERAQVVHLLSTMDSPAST

For the compound `CC(=O)N[C@@H](C)/C=C/c1ccc(Oc2ccc(-c3cnc(C(F)(F)F)cn3)cc2Cl)nc1` [Compound I-417], the IC50 worked out at 57 nM.

Regarding `CC(=O)N[C@@H](C)/C=C/c1ccc(Oc2ccc(-c3ncccn3)cc2Cl)nc1` [Compound I-418], the IC50 is 97 nM.

Regarding `CC(=O)N[C@@H](C)/C=C/c1ccc(Oc2ccc(-c3ncc(C(F)(F)F)cn3)cc2Cl)nc1` [Compound I-419], the IC50 was found to be 48 nM.

With `CC(=O)N[C@@H](C)/C=C/c1ccc(Oc2ccc(-c3ccc(C(F)(F)F)cn3)cc2Cl)nc1` [Compound I-421], the IC50 came to 52 nM.

For `CCCc1ccc(Oc2ccc(/C=C/[C@H](C)NC(=O)Cc3ccccn3)cn2)c(Cl)c1` [Compound I-422], the IC50 worked out at 1300 nM.

As to `CCCc1ccc(Oc2ccc(/C=C/[C@H](C)NC(=O)Cc3nccs3)cn2)c(Cl)c1` [Compound I-423], the IC50 turned out to be 3000 nM.

Regarding `CC(=O)N[C@@H](C)/C=C/c1ccc(Oc2ccc3sc(C)nc3c2)nc1` [Compound I-424], the 50% inhibitory concentration (IC50) is 140 nM.

With `CC(=O)N[C@@H](C)/C=C/c1ccc(Oc2ccc3nc(C)sc3c2)nc1` [Compound I-425], the half-maximal inhibitory concentration (IC50) came to 40 nM.

With `CC(=O)N[C@@H](C)/C=C/c1ccc(Oc2cc3c(cc2Cl)CCC3)nc1` [Compound I-426], the concentration for half-maximal inhibition (IC50) amounted to 26 nM.

On to `CC(=O)N[C@@H](C)/C=C/c1cnc(Oc2ccc(C(C)(C)C(F)(F)F)cc2Cl)nc1` [Compound I-427], for which the IC50 turned out to be 200 nM.

`CC(=O)N[C@@H](C)/C=C/c1cnc(Oc2ccc(C(C)(C)C(F)(F)F)cc2Cl)cn1` [Compound I-428]: the half-maximal inhibitory concentration (IC50) stood at 170 nM.

On to `CC(=O)N[C@@H](C)/C=C/c1ccc(Oc2ccc3c(c2)CCO3)nc1` [Compound I-429], for which the IC50 was found to be 50 nM.

`CCOc1ccc(Oc2ncc(/C=C/[C@H](C)NC(C)=O)cc2N)c(Cl)c1` [Compound I-430]: the IC50 is 2700 nM.

As to `CCC(=O)c1ccc(Oc2ncc(/C=C/[C@H](C)NC(C)=O)s2)c(Cl)c1` [Compound I-431], under setting [1], the IC50 was 85 nM.

`CCCc1ccc(Oc2ncc(/C=C/[C@H](C)NC(C)=O)cn2)c(Cl)c1` [Compound I-432]: the concentration for half-maximal inhibition (IC50) under setting [1] came out at 520 nM.

Turning to `CCCc1ccc(Oc2cnc(/C=C/[C@H](C)NC(C)=O)cn2)c(Cl)c1` [Compound I-433], the IC50 under setting [1] amounted to 49 nM.

As to `CC(=O)N[C@@H](C)/C=C/c1ccc(Oc2ccc(C3(C)CC3(F)F)cc2Cl)nc1` (some centres unmarked) [Compound I-434], the IC50 under setting [1] was 100 nM.

With `CC(=O)N[C@@H](C)/C=C/c1ccc(Oc2ccc3c(c2Cl)CCC3)nc1` [Compound I-435], the concentration for half-maximal inhibition (IC50) under setting [1] was 24 nM.

Regarding `CCC(CC)c1ccc(Oc2ccc(/C=C/[C@H](C)NC(C)=O)cn2)c(Cl)c1` [Compound I-436], the IC50 under setting [1] stood at 58 nM.

Turning to `CCCc1ccc(Oc2ccc(/C=C/[C@H](C)NC(C)=O)cn2)c(C)c1` [Compound I-437], the IC50 under setting [1] is 33 nM.

With `CCCc1ccc(Oc2ccc(/C=C/[C@H](C)NC(C)=O)cn2)c(C(F)(F)F)c1` [Compound I-439], the half-inhibitory concentration (IC50) under setting [1] was 82 nM.

Consider `CCCc1ccc(Oc2ccc(/C=C/[C@H](C)NC(C)=O)cn2)c(Cl)c1Cl` [Compound I-440], for which the IC50 under setting [1] came out at 20 nM.

As to `CCOC(=O)c1cnc(Oc2ccc(Oc3ccc(/C=C/[C@H](C)NC(C)=O)cn3)c(Cl)c2)s1` [Compound I-441], under setting [1], the concentration for half-maximal inhibition (IC50) amounted to 690 nM.

For the compound `CCOc1ccc(Oc2ncc(/C=C/[C@H](C)NC(C)=O)cc2C)c(Cl)c1` [Compound I-442], the half-maximal inhibitory concentration (IC50) under setting [1] was 65 nM.

Take `CC(=O)N[C@@H](C)/C=C/c1cnc(Oc2ccc(OCC3CC3)cc2Cl)c(C)c1` [Compound I-443]: under setting [1], the half-inhibitory concentration (IC50) is 22 nM.

`CC(=O)N[C@@H](C)/C=C/c1ccc(Oc2ccc3c(c2)CCCO3)nc1` [Compound I-444]: the 50% inhibitory concentration (IC50) under setting [1] stood at 42 nM.

As for `CC(=O)N[C@@H](C)/C=C/c1cnc(Oc2ccc(OCC3CC3)cc2Cl)c(C#N)c1` [Compound I-445], the 50% inhibitory concentration (IC50) under setting [1] came out at 260 nM.

Consider `CCOc1ccc(Oc2ncc(/C=C/[C@H](C)NC(C)=O)cc2F)c(Cl)c1` [Compound I-446], for which the IC50 under setting [1] is 73 nM.

For `CC(=O)N[C@@H](C)/C=C/c1cnc(Oc2ccc(OCC3CC3)cc2Cl)c(F)c1` [Compound I-447], the IC50 under setting [1] is 25 nM.

Regarding `CC(=O)N[C@@H](C)/C=C/c1ccc(Oc2ccc3c(c2)OCC3)nc1` [Compound I-448], the concentration for half-maximal inhibition (IC50) under setting [1] was found to be 180 nM.

`CC(=O)N[C@@H](C)/C=C/c1ccc(Oc2ccc3c(c2)OCCC3)nc1` [Compound I-449]: under setting [1], the IC50 turned out to be 130 nM.

For `CC(=O)N[C@@H](C)/C=C/c1ccc(Oc2ccc(OCc3ccccc3)cc2Cl)nc1` [Compound I-450], the IC50 under setting [1] is 60 nM.

As to `CC(=O)N[C@@H](C)/C=C/c1ccc(Oc2ccc(Oc3ccc([N+](=O)[O-])cc3)cc2Cl)nc1` [Compound I-451], the 50% inhibitory concentration (IC50) under setting [1] came out at 25 nM.

`CC(=O)N[C@@H](C)/C=C/c1ccc(Oc2ccc(Oc3ccc(C#N)cc3)cc2Cl)nc1` [Compound I-452]: under setting [1], the IC50 is 42 nM.

`CC(=O)N[C@@H](C)/C=C/c1ccc(Oc2ccc(Oc3cncs3)cc2Cl)nc1` [Compound I-453]: under setting [1], the IC50 came to 730 nM.

Regarding `CC(=O)N[C@@H](C)/C=C/c1ccc(Oc2ccc(-c3ncc(F)cn3)cc2Cl)nc1` [Compound I-454], under setting [1], the half-maximal inhibitory concentration (IC50) was 37 nM.

Turning to `CC(=O)N[C@@H](C)/C=C/c1ccc(Oc2ccc3nc(C)sc3c2Cl)nc1` [Compound I-455], the IC50 under setting [1] was found to be 30 nM.

Take `CC(=O)N[C@@H](C)/C=C/c1ccc(Oc2ccc3c(C)noc3c2)nc1` [Compound I-456]: under setting [1], the half-inhibitory concentration (IC50) came out at 450 nM.

Take `CC(=O)N[C@@H](C)/C=C/c1ccc(Oc2cc(C)c(C)cc2Cl)nc1` [Compound I-457]: the IC50 under setting [1] came out at 310 nM.

On to `CCCc1cc(Cl)c(Oc2ccc(/C=C/[C@H](C)NC(C)=O)cn2)cc1Cl` [Compound I-458], for which the IC50 under setting [1] is 26 nM.

`CCCc1ccc(Oc2ccc(/C=C(\F)[C@H](C)NC(C)=O)cn2)c(Cl)c1` [Compound I-459]: the concentration for half-maximal inhibition (IC50) under setting [1] came to 12 nM.

As for `C/C=C/c1ccc(Oc2ccc(/C=C/[C@H](C)NC(C)=O)cn2)c(Cl)c1` [Compound I-460], the IC50 under setting [1] worked out at 130 nM.

Consider `CC(=O)N[C@@H](C)/C=C/c1ccc(Oc2ccc3nc(C)oc3c2)nc1` [Compound I-461], for which, under setting [1], the half-inhibitory concentration (IC50) turned out to be 1500 nM.

Take `CC(=O)N[C@@H](C)/C=C/c1ccc(Oc2ccc(Oc3ccccc3)cc2Cl)nc1` [Compound I-462]: the concentration for half-maximal inhibition (IC50) under setting [1] was found to be 19 nM.

In the case of `CC(=O)N[C@@H](C)/C=C/c1ccc(Oc2ccc(Oc3ccccn3)cc2Cl)nc1` [Compound I-463], the IC50 under setting [1] amounted to 68 nM.

As to `CC(=O)N[C@@H](C)/C=C/c1ccc(Oc2ccc(Oc3cccnc3)cc2Cl)nc1` [Compound I-464], the half-maximal inhibitory concentration (IC50) under setting [1] was 120 nM.

For `CC(=O)N[C@@H](C)/C=C/c1ccc(Oc2ccc(Oc3ccncc3)cc2Cl)nc1` [Compound I-465], the IC50 under setting [1] was found to be 120 nM.

Turning to `CC(=O)N[C@@H](C)/C=C/c1ccc(Oc2ccc3c(c2Cl)CCC3(F)F)nc1` [Compound I-466], the 50% inhibitory concentration (IC50) under setting [1] is 16 nM.

Consider `CCCC(F)(CC)c1ccc(Oc2ccc(/C=C/[C@H](C)NC(C)=O)cn2)c(Cl)c1` (some centres unmarked) [Compound I-467], for which the IC50 under setting [1] was 43 nM.

On to `CC(=O)N[C@@H](C)/C=C/c1ccc(Oc2ccc3c(c2)CCN(CC2CC2)C3=O)nc1` [Compound I-468], for which the concentration for half-maximal inhibition (IC50) under setting [1] was 90 nM.

As to `CCCc1cccc(Oc2ccc(/C=C/[C@H](C)NC(C)=O)cn2)c1Cl` [Compound I-469], the half-inhibitory concentration (IC50) under setting [1] was found to be 36 nM.

Regarding `CCCc1cc(Cl)cc(Oc2ccc(/C=C/[C@H](C)NC(C)=O)cn2)c1` [Compound I-470], the 50% inhibitory concentration (IC50) under setting [1] worked out at 230 nM.

As to `CCOc1ccc(Oc2ccc(/C=C(\F)[C@H](C)NC(C)=O)cn2)c(Cl)c1` [Compound I-471], under setting [1], the concentration for half-maximal inhibition (IC50) came to 16 nM.

For `CC(=O)N[C@@H](C)/C=C/c1ccc(Oc2ccc3c(c2)OCCO3)nc1` [Compound I-472], the IC50 under setting [1] turned out to be 37 nM.

As to `CCC(F)(F)c1ccc(Oc2cnc(/C=C/[C@H](C)NC(C)=O)cn2)c(Cl)c1` [Compound I-473], under setting [1], the half-inhibitory concentration (IC50) is 39 nM.

On to `CCc1nc2ccc(Oc3ccc(/C=C/[C@H](C)NC(C)=O)cn3)c(Cl)c2s1` [Compound I-474], for which the IC50 under setting [1] amounted to 9.7 nM.

Take `CCCc1ccc(Cl)c(Oc2ccc(/C=C/[C@H](C)NC(C)=O)cn2)c1` [Compound I-475]: under setting [1], the concentration for half-maximal inhibition (IC50) was determined as 170 nM.

In the case of `C/C=C(\CC)c1ccc(Oc2ccc(/C=C/[C@H](C)NC(C)=O)cn2)c(Cl)c1` [Compound I-476], the IC50 under setting [1] came out at 240 nM.

Turning to `CC(=O)N[C@@H](C)/C=C/c1ccc(Oc2ccc3nc(C(C)C)sc3c2Cl)nc1` [Compound I-477], the concentration for half-maximal inhibition (IC50) under setting [1] came to 6.9 nM.

`CC(=O)N[C@@H](C)/C=C/c1ccc(Oc2cc3sc(C)nc3cc2Cl)nc1` [Compound I-478]: the 50% inhibitory concentration (IC50) under setting [1] amounted to 550 nM.

On to `CC(=O)N[C@@H](C)/C=C/c1ccc(Oc2cc3c(cc2Cl)OCC3)nc1` [Compound I-479], for which the IC50 under setting [1] stood at 440 nM.

Consider `CCN1CCc2cc(Oc3ccc(/C=C/[C@H](C)NC(C)=O)cn3)ccc2C1=O` [Compound I-480], for which, under setting [1], the IC50 worked out at 520 nM.

For `CC(=O)N[C@@H](C)/C=C/c1ccc(Oc2ccc3nc(C(F)(F)F)sc3c2)nc1` [Compound I-481], the IC50 under setting [1] stood at 13 nM.

As to `CC(=O)N[C@@H](C)/C=C/c1ccc(Oc2ccc3c(c2)OC(F)(F)C(F)(F)O3)nc1` [Compound I-482], the IC50 under setting [1] is 8.1 nM.

`CC(=O)N[C@@H](C)/C=C/c1ccc(Oc2ccc3c(c2)OC(F)(F)O3)nc1` [Compound I-483]: under setting [1], the IC50 turned out to be 52 nM.

`CSc1ncc(Oc2ccc(/C=C/[C@H](C)NC(C)=O)cn2)cn1` [Compound I-484]: the half-inhibitory concentration (IC50) under setting [1] is 160 nM.

As for `CCCc1cc(Oc2ccc(/C=C/[C@H](C)NC(C)=O)cn2)ccc1Cl` [Compound I-485], under setting [1], the IC50 came out at 130 nM.

As to `CC(=O)N[C@@H](C)/C=C/c1ccc(Oc2ccc3c(C)nsc3c2)nc1` [Compound I-486], the IC50 under setting [1] turned out to be 110 nM.

Consider `CCc1nc2cc(Cl)c(Oc3ccc(/C=C/[C@H](C)NC(C)=O)cn3)cc2s1` [Compound I-487], for which the IC50 under setting [1] turned out to be 38 nM.

Regarding `CC(=O)N[C@@H](C)/C=C/c1ccc(Oc2cc3sc(C(C)C)nc3cc2Cl)nc1` [Compound I-488], the IC50 under setting [1] came out at 11 nM.

For the compound `CCOc1ccc(Oc2ccc(/C=C/[C@H](C)NC(C)=O)nc2)c(Cl)c1` [Compound I-489], the half-inhibitory concentration (IC50) under setting [1] worked out at 550 nM.
